Each structure is given as a SMILES string.

In general, IC50 refers to the midpoint of a concentration-inhibition curve. Lower therefore signals greater potency in that assay.

Type in all cases: cell-based
One test deals with T1, GLUT6 (Homo sapiens, UniProt Q9UGQ3).
T1 construct: gene SLC2A6
T1 sequence (Q9UGQ3 1-507): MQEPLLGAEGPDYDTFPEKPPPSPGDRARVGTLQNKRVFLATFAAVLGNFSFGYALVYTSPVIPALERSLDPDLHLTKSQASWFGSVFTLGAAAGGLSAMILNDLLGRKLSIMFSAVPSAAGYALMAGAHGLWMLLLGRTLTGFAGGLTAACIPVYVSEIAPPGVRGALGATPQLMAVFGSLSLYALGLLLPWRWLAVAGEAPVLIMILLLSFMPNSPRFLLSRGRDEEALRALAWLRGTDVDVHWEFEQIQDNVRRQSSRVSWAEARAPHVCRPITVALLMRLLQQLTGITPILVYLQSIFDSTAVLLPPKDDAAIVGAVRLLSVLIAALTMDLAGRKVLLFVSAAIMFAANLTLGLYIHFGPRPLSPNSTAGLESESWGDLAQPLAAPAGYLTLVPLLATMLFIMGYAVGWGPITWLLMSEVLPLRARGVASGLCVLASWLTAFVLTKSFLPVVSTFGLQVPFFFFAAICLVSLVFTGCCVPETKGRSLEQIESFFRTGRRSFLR
In words: [3H]-2-deoxyglucose uptake in GLUT-expressing HEK293 cells.

Another test deals with T2, GLUT4 (Homo sapiens, UniProt P14672).
T2 construct: gene SLC2A4
T2 sequence (P14672 1-509): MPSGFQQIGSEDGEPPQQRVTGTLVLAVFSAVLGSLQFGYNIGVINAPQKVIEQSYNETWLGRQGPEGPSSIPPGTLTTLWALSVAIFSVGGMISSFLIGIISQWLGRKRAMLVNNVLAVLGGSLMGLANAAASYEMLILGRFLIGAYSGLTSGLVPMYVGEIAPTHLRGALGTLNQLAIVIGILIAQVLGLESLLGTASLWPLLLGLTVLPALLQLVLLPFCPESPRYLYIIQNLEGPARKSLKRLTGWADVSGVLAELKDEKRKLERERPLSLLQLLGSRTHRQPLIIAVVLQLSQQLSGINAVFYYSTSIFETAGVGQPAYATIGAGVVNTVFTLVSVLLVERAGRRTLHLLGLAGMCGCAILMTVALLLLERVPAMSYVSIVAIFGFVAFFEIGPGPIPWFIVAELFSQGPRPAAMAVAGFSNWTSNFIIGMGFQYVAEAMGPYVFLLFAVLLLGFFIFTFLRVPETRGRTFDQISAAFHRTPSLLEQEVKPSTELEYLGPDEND
The description is as above.

The target in the next test is T3, GLUT10 (Homo sapiens, UniProt O95528).
T3 construct: gene SLC2A10
T3 sequence (O95528 1-541): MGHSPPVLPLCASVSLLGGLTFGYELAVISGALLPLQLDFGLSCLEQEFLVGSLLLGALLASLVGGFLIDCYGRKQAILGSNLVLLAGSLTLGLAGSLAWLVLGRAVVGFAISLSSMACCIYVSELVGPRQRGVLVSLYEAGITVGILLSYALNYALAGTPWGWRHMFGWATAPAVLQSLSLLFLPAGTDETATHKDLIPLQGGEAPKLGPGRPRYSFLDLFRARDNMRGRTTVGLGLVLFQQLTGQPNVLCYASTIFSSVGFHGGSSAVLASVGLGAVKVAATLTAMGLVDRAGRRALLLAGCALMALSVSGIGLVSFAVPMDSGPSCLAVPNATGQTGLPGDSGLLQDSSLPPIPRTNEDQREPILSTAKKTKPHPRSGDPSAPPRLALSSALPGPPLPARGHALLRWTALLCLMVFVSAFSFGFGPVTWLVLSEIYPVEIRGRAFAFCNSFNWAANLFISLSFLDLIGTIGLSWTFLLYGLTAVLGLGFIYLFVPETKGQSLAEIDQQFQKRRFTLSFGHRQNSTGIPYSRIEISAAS
Described as above.

In a further test the target is T4, GLUT2 (Homo sapiens, UniProt P11168).
T4 construct: gene SLC2A2
T4 sequence (P11168 1-524): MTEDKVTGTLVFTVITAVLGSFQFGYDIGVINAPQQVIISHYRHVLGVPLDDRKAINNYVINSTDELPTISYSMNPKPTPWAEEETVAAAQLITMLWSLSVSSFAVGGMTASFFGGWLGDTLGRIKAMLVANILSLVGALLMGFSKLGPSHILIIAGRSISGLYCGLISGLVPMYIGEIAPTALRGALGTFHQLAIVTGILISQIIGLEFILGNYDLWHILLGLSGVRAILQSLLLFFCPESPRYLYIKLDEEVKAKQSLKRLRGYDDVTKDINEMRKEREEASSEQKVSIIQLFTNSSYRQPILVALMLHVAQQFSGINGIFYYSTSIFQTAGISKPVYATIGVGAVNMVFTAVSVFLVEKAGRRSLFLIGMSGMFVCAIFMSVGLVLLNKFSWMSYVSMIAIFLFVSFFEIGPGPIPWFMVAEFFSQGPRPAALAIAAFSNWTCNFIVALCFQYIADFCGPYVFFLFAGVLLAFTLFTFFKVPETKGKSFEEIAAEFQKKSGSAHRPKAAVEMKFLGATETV
The test is described as above. The following applies: 50 µM 2-deoxyglucose, 4 min; pH 7.3; labelled compound.

The target in another test is T5, GLUT5 (Homo sapiens, UniProt P22732).
T5 construct: gene SLC2A5
T5 sequence (P22732 1-501): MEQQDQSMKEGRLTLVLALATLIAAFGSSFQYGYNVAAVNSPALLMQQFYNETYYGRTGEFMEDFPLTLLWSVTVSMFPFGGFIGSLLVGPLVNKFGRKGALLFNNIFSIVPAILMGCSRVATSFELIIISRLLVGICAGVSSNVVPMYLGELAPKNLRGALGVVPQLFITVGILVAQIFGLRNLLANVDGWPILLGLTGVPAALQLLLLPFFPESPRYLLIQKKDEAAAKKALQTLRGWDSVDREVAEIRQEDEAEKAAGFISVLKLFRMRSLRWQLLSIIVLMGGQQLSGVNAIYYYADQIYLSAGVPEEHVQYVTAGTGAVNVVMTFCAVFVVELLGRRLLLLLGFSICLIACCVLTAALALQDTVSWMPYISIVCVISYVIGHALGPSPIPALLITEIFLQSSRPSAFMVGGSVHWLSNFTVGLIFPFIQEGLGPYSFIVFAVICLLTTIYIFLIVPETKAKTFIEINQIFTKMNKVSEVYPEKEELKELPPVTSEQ
In words: [3H]-D-fructose uptake in GLUT-expressing HEK293 cells. Conditions: 4 µM fructose, 2 min; pH 7.3; labelled compound.

Regarding `Cc1c(NC(=O)c2cc(C(N)=O)nc3cc(F)ccc23)c(C(F)(F)F)nn1Cc1ccc(C#N)cc1` [BAY-876], the IC50 came to 2.2 µM at GLUT6, 5.4 µM against GLUT4 and 1.7 µM on GLUT10.
`OC[C@H]1OC(O)C[C@@H](O)[C@@H]1O` (some centres unmarked) [[^3H]-2-deoxyglucose]: at GLUT2, the “[3H]-2-deoxyglucose uptake in GLUT-expressing HEK293 cells” value is listed as “HEK293 cells that stably express human GLUT transporters were incubated”.
Take `OCC1(O)OC[C@@H](O)[C@@H](O)[C@@H]1O` (stereo partly drawn) [[^3H]-D-fructose]: the “[3H]-D-fructose uptake in GLUT-expressing HEK293 cells” value on GLUT5 is “Fructose transport through GLUT5 was not impaired by BAY-876”.

The values above are taken from PMC9776291 (Biomolecules, 2022).
